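Cultured in 96-well plates, cells were exposed to test compound for 48 hours across five concentrations. GI50 marks 50% less growth.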 Activity calls are given as the source filed them. Rule as the data show it: active = GI50 up to about 1.1 µM and inactive = higher.

Test systems include A498; HCC 2998; HCT-15; Hs-578T; K562; MCF7; MDA-MB-231; MDA-N; NCI-H23; OVCAR-3; OVCAR-5; SF-539; SK-MEL-2; SN12C; SW-620; T47D; TK-10; UACC-257; UACC-62; SF-295.
What all share (test): DTP human tumour cell line panel, 48 h

`COC(=O)[C@@H]1C[C@]2(Br)c3ccccc3N(S(=O)(=O)c3ccccc3)[C@@H]2N1C(=O)OC`: the GI50 with A498 was 59.2 µM (inactive); in the assay with HCC 2998 it was 84.3 µM (inactive); in the assay with HCT-15, 67.3 µM; in the assay with Hs-578T, 83.9 µM (inactive); with K562 it was > 100 µM (inactive); in the assay on MCF7 it was > 100 µM (inactive). The GI50 was > 100 µM (inactive) in the assay with MDA-MB-231; > 100 µM (inactive) in the assay on MDA-N; 37.3 µM (inactive) in the assay on NCI-H23; > 100 µM (inactive) with OVCAR-3; 51.3 µM (inactive) in the assay with OVCAR-5; > 100 µM (inactive) with SF-539. In addition, the GI50 was 74.5 µM (inactive) in the assay on SK-MEL-2; > 100 µM (inactive) in the assay on SN12C; > 100 µM (inactive) in the assay on SW-620; > 100 µM (inactive) in the assay on T47D; > 100 µM (inactive) in the assay on TK-10; 0.0285 µM (active) in the assay on UACC-257. Also, the GI50 in the assay on UACC-62 was 62.1 µM (inactive).

Consider `CN(C)c1ccc(/C=C(\C#N)C(N)=C(C#N)C#N)cc1`, for which the GI50 with A498 is > 100 µM (inactive); in the assay with HCC 2998, > 100 µM (inactive); in the assay on HCT-15, above 100 µM; in the assay with Hs-578T it was > 100 µM (inactive); in the assay on K562, > 100 µM (inactive); in the assay on MCF7 it was > 100 µM (inactive). Also, the GI50 in the assay with MDA-MB-231, in the assay on MDA-N, in the assay on NCI-H23, in the assay on OVCAR-3, with OVCAR-5 and in the assay on SF-295 was > 100 µM (inactive) in each case. Also, the GI50 with SF-539 was > 100 µM (inactive); in the assay with SN12C it was > 100 µM (inactive); in the assay on SW-620, > 100 µM (inactive); in the assay with T47D, > 100 µM (inactive); in the assay with TK-10 it was > 100 µM (inactive); in the assay with UACC-257, 97.9 µM (inactive). Also, the GI50 in the assay on UACC-62 was 94 µM (inactive).

Take `CC(C)(C)N/N=C(/Cc1nc2c3c(ccc2nc1O)C(=O)c1ccccc1C3=O)C(=O)NC1=C(Cl)C(=O)c2ccccc2C1=O`: the GI50 with A498 is 88.9 µM (inactive); in the assay on HCC 2998 it was 17.9 µM (inactive); with HCT-15 it was 4.26 µM; in the assay on Hs-578T, 24.7 µM (inactive); in the assay with K562 it was 85.3 µM (inactive); in the assay on MCF7, 20 µM (inactive). The GI50 was 1.98 µM (inactive) with MDA-MB-231; 15.1 µM (inactive) in the assay on MDA-N; 42.1 µM (inactive) in the assay on NCI-H23; 13.9 µM (inactive) with OVCAR-3; > 100 µM (inactive) with OVCAR-5; 39.4 µM (inactive) in the assay on SF-295. Also, the GI50 with SF-539 was 21 µM (inactive); with SK-MEL-2, 12.4 µM (inactive); in the assay with SN12C, 17 µM (inactive); with SW-620, 39.3 µM (inactive); in the assay on T47D, 23.3 µM (inactive); in the assay with UACC-257, 57.9 µM (inactive). For the same molecule, the GI50 in the assay with UACC-62 was 21.2 µM (inactive).

Regarding `CC1(C)CCC(C)(C)C1C(=O)NC(O)C(=O)O` (centres undefined), the GI50 in the assay on A498 is > 100 µM (inactive); with HCC 2998, > 100 µM (inactive); in the assay with HCT-15, above 100 µM; in the assay with Hs-578T, > 100 µM (inactive); in the assay on K562 it was > 100 µM (inactive); in the assay on MCF7, > 100 µM (inactive). Besides, the GI50 was > 100 µM (inactive) in the assay on MDA-MB-231; > 100 µM (inactive) in the assay with MDA-N; > 10 µM (inactive) in the assay with NCI-H23; > 100 µM (inactive) with OVCAR-5; > 100 µM (inactive) in the assay on SF-539; > 100 µM (inactive) in the assay with SK-MEL-2. Besides, the GI50 in the assay on SN12C, in the assay on SW-620, in the assay on T47D, in the assay with TK-10 and in the assay with UACC-62 was > 100 µM (inactive) in each case.

Regarding `c1ccc2c(C3CCN(CCN4CCOCC4)C3)c[nH]c2c1` (centres undefined), the GI50 in the assay on A498 is > 100 µM (inactive); with HCC 2998 it was 47 µM (inactive); in the assay on HCT-15, above 100 µM; in the assay on Hs-578T, > 100 µM (inactive); in the assay with K562, > 100 µM (inactive); in the assay with MCF7, > 100 µM (inactive). In addition, the GI50 in the assay on MDA-MB-231, with MDA-N, in the assay with NCI-H23, in the assay with OVCAR-3, in the assay on OVCAR-5 and in the assay on SF-295 was > 100 µM (inactive) throughout. Moreover, the GI50 in the assay with SK-MEL-2, in the assay on SN12C, with SW-620, with T47D, in the assay on TK-10 and with UACC-257 was > 100 µM (inactive) each time. Further, the GI50 in the assay on UACC-62 was > 100 µM (inactive).

For the molecule `Cc1nc2ccccc2c(=O)n1/N=C/c1ccc(N(C)C)cc1`, the GI50 in the assay on A498 is > 100 µM (inactive); in the assay on HCC 2998, > 100 µM (inactive); in the assay on HCT-15 it was above 100 µM; with Hs-578T, 15.3 µM (inactive); in the assay with MCF7, > 100 µM (inactive); with MDA-MB-231 it was 32.9 µM (inactive). For the same molecule, the GI50 in the assay on MDA-N was > 100 µM (inactive); in the assay on NCI-H23, 78 µM (inactive); with OVCAR-3, > 100 µM (inactive); in the assay on OVCAR-5, > 100 µM (inactive); in the assay with SF-295, 43.6 µM (inactive); in the assay with SF-539, > 100 µM (inactive). In addition, the GI50 in the assay on SK-MEL-2, with SN12C, in the assay with SW-620, with T47D, in the assay on TK-10 and with UACC-257 was > 100 µM (inactive) each time. For the same molecule, in the assay on UACC-62, the GI50 is 71.8 µM (inactive).

Turning to `CSc1c(C(=O)Nc2ccccc2)c(N)nn1-c1ccccc1`, the GI50 with A498 was > 100 µM (inactive); in the assay on HCC 2998, > 100 µM (inactive); with HCT-15, above 100 µM; in the assay with Hs-578T, > 100 µM (inactive); in the assay with K562, > 100 µM (inactive); in the assay on MCF7, > 100 µM (inactive). Moreover, the GI50 in the assay with MDA-MB-231, in the assay on MDA-N, with NCI-H23, in the assay on OVCAR-3, in the assay with OVCAR-5 and in the assay with SF-539 was > 100 µM (inactive) each time. For the same molecule, the GI50 with SK-MEL-2, with SN12C, in the assay with SW-620, in the assay with T47D, in the assay with TK-10 and with UACC-257 was > 100 µM (inactive) in each case. Also, the GI50 in the assay on UACC-62 is > 100 µM (inactive).

As for `O=C(O)CSc1nnc(CCCCCCCCc2nnc(SCC(=O)O)o2)o1`, the GI50 is > 100 µM (inactive) with A498; > 100 µM (inactive) in the assay on HCC 2998; above 100 µM in the assay on HCT-15; 82.2 µM (inactive) in the assay with Hs-578T; > 100 µM (inactive) with K562; > 100 µM (inactive) with MCF7. The GI50 in the assay with MDA-MB-231, in the assay with MDA-N, with NCI-H23, in the assay with OVCAR-5, with SF-295 and with SK-MEL-2 was > 100 µM (inactive) in each case. The GI50 with SN12C, in the assay on SW-620, in the assay with T47D, in the assay with TK-10, in the assay with UACC-257 and in the assay with UACC-62 was > 100 µM (inactive) throughout.

As for `CCCCCCCCCCCCCCCCCC(=O)OCC(COC1OC(CS(=O)(=O)O)C(O)C(O)C1O)OC(=O)CCCCCCCCCCCCCCCCC` (centres undefined), the GI50 in the assay on A498 was > 100 µM (inactive); in the assay with HCC 2998 it was > 100 µM (inactive); in the assay on HCT-15, above 100 µM; in the assay on Hs-578T it was > 100 µM (inactive); in the assay on K562, > 100 µM (inactive); in the assay on MCF7, > 100 µM (inactive). The GI50 with MDA-MB-231, with MDA-N, in the assay on NCI-H23, in the assay with OVCAR-3, in the assay with OVCAR-5 and with SF-295 was > 100 µM (inactive) in each case. For the same molecule, the GI50 in the assay on SF-539, in the assay on SN12C, in the assay with SW-620, in the assay on T47D, in the assay with TK-10 and with UACC-257 was > 100 µM (inactive) throughout. In addition, in the assay on UACC-62, the GI50 was > 100 µM (inactive).

With `CC(C)C(C/C=C1\CC(CO)(COC(=O)c2ccccc2)OC1=O)C(C)C` (centres undefined), the GI50 with A498 is 21.3 µM (inactive); in the assay on HCC 2998, 22.4 µM (inactive); in the assay with HCT-15, 21.6 µM; in the assay with Hs-578T, 13.1 µM (inactive); in the assay with K562 it was 12 µM (inactive); with MCF7 it was 20.9 µM (inactive). Also, the GI50 with MDA-MB-231 was 21.3 µM (inactive); with MDA-N, 21.2 µM (inactive); in the assay on NCI-H23 it was 20.2 µM (inactive); in the assay on OVCAR-3, 21.2 µM (inactive); in the assay with OVCAR-5 it was 14.3 µM (inactive); in the assay with SF-295, 14.5 µM (inactive). Further, the GI50 in the assay with SK-MEL-2 was > 100 µM (inactive); in the assay on SN12C, 17.2 µM (inactive); in the assay with SW-620 it was 18 µM (inactive); in the assay on T47D, 93.8 µM (inactive); with TK-10, 19 µM (inactive); with UACC-257 it was 27.6 µM (inactive). For the same molecule, the GI50 with UACC-62 was > 100 µM (inactive).

With `COc1cc2c(c(OC)c1)[C@H](C)N(Cc1ccccc1)C(C)C2` (some centres undefined), the GI50 in the assay on A498 is > 100 µM (inactive); in the assay on HCC 2998, 33 µM (inactive); in the assay with HCT-15 it was 28.6 µM; with Hs-578T it was 25.5 µM (inactive); in the assay on K562, 21.9 µM (inactive); with MCF7 it was 42.2 µM (inactive). Moreover, the GI50 was 36.3 µM (inactive) with MDA-MB-231; > 10 µM (inactive) in the assay with MDA-N; 95.3 µM (inactive) in the assay with NCI-H23; 16.3 µM (inactive) in the assay on SF-295; 16.6 µM (inactive) in the assay on SF-539; 35.2 µM (inactive) in the assay with SN12C. Besides, the GI50 with SW-620 was 28.9 µM (inactive); in the assay with T47D it was 45.9 µM (inactive); in the assay on TK-10 it was 37.2 µM (inactive); with UACC-257, 67.8 µM (inactive); in the assay on UACC-62, 52.5 µM (inactive).

For the origin of these results see ChEMBL document CHEMBL1201862, “PubChem BioAssay data set” (2004).
